Data reported in patent publication US20240343734A1, “NOVEL SMALL MOLECULE INHIBITORS OF PUS7 AND USES THEREOF” (City of Hope, priority 2021, published 2024).

Tested on: GSCs
Experiment: GSC growth (several lines, stated for GSCs in general)
Assay type: cell-based, human
Conditions: 0.5, 1, 2, 4, 8 μM
Protocol: GSCs were derived from newly diagnosed grade IV GBM patients. GSCs and NSCs were maintained in spheres in DMEM-F12 medium supplemented with 2 mM L-glutamine, 27.4 mM HEPES, B27, 20 ng ml^−1 EGF, 20 ng ml^−1 FGF and 5 μg ml^−1 heparin as described (Cui, Q., et al., supra). Established GBM cells were maintained in DMEM medium supplemented with 2 mM L-glutamine and 10% FBS. All cultures were mycoplasma-free as confirmed using MycoAlert PLUS Mycoplasma Detection Kit (Lonza). GSCs or NSCs were treated with PUS7 inhibitors at indicated concentration for 72 h. GSCs were treated with IFNα at indicated doses for 6 days.
GSC growth, sphere formation and limiting dilution assays were performed as described 9 Cui, Q., et al., supra). For growth, GSCs were seeded at 5×10^4 cells per well in 24-well plates and cultured for 7 days. Cell growth was monitored by cell counting using a hemocytometer. For sphere formation, GSCs were seeded at 1 cell per well in 96-well plates or 100 cells per well in 48-well plates and cultured for 2 weeks. Spheres were counted under microscope. For limiting dilution assay, GSCs were seeded into 96-well plates at 1, 5, 10, 20, 50 and 100 cells per well. The number of sphere-forming wells was recorded in two weeks. The limiting dilution analysis was performed using the extreme limiting dilution analysis software at http://bioinf.wehi.edu.au/software/elda.

SMILES: NC(=O)c1[nH]nc([C@@H]2O[C@H](CO)[C@@H](O)[C@H]2O)c1O [pyrazofurin]
- dose effect on the growth of PBT003 and PBT707 GSCs (significance) (FIG. 17B): p<0.0001 for 0.5, 1, 2, 4, and 8 μM conditions
- dose effect on the growth of PBT0030, NSC005, and NSC010 (significance) (FIG. 17C): p<0.0001 for 0.5, 1, 2, 4, and 8 μM conditions for PBT030 only
